Measured values reported in US10265289B2, “Method and medicines for treating melanoma” (SICHUAN JIUZHANG BIOLOGICAL SCIENCE AND TECHNOLOGY CO., LTD., priority 2015, dated 2019).

What was measured:
mouse melanoma B16 [1] = assay: Example 7: chlorogenic acid-5-flurouracil combination against mouse melanoma B16; conditions: 5-flurouracil 500 mg/kg × 4, i.p.
Method: Next day after inoculation, animals were divided into groups, weighed, and administration of drugs started. Normal saline was administrated to mice in the negative control group by peritoneal injection at 0.2 ml/10 g, once a day.
Each group contains 12 animals. […] Tumor control rate (%) was calculated based on tumor weight.

mouse melanoma B16 [2] = assay: Example 6: chlorogenic acid-adriamycin or chlorogenic acid-cisplatin combination against mouse melanoma B16; assay type: in vivo
Text: (§1) Each group contains 15 animals.

[3] = system: M1-type macrophage markers iNOS, IL-12, TNF-α and M2-type macrophage marker Arg; assay: Example 1: macrophage marker expression (flow cytometer, real-time fluorescent quantified PCR) in mouse melanoma B16 model; assay type: in vivo; conditions: 5, 10, 20 mg/kg i.p. once a day for 13 days
Method: Each group has 15 animals. […] After successful anesthesia of mice, bilateral eyeballs were removed and mice were killed by bleeding. […] Mice were placed in supine position, with segmental […] being toward up. 5 ml serum-free DMEM medium preheated at 37° C. was drawn out using 5 ml aseptic syringe, and middle-lower abdominal skin of mice was lifted with a tweezer, then 5 ml pre-suctioned serum-free DMEM medium preheated at 37° C. was injected to abdominal cavity (note: needlepoint being toward up, avoiding intestinal canal and fat). After that, bilateral peritoneal wall was gently kneaded and pressed for about 20-30 seconds, to make the intraperitoneal fluid fully flow. When collecting the peritoneal fluid, a little cut was opened on mouse hypogastric region using a surgical scissor, and skin was […] toward two sides, to thoroughly expose the peritoneum, then it was wiped and cleaned with 75% alcoholic cotton balls for sterilization. Further, about […] of little cut was opened on mouse peritoneum using ophthalmic scissors, and the peritoneal fluid was drawn back with 5 ml aseptic syringe (Try not to absorb intestinal canal and fat, otherwise, it is easy to cause contamination of fibroblasts), then transferred to 15.0 ml centrifuge tube and centrifugated at 1200 rpm/min for 5 min, to remove the supernatant fluid. The residue was re-suspended in sterile normal saline at […] and transferred into 1.5 ml centrifuge tube for use. […] During enzymatic digestion, centrifuge tubes were shaken every 10-15 minutes. When the fluid in centrifuge tubes became turbid, the piece of tumor tissue had already disintegrated and lost its massive shape. Once being shaken, the mass would become cell clumps or single cell, indicating the tumor tissue piece had already been fully digested. The enzymatic digestion time can be suitably shortened or elongated as the digestion degree of tumor tissue. […] Cells were re-suspended in sterile normal saline at […], and transferred to 1.5 ml centrifuge tubes for use. (3) Cell phenotype was detected by flow cytometer, and the corresponding marker of same sample was determined using real-time fluorescent quantified PCR. Results were shown in FIGS. 1-3, in which FIGS. 1-3 are respectively the detection result graphs of iNOS, IL-12, Arg expression in example 1. FIG. 4 is the detection result graph of TNF-α expression in example 1.

mouse melanoma B16 [4] = assay: Example 5: chlorogenic acid-cyclophosphamide combination against mouse melanoma B16
Text: (§2) After inoculation, animals were divided into groups next day, weighed, and administration of drugs started.
as §1

[5] = system: M1-type macrophage marker iNOS and M2-type macrophage marker Arg; assay: Example 2: maintenance of M1-type macrophages (LPS+INFγ) in mouse melanoma B16 model; assay type: in vivo; conditions: LPS + INFγ + chlorogenic acid 5, 10, 20 mg/kg, dose-dependent
Method: Each group includes 15 animals. After successful anesthesia of mice, bilateral eyeballs were removed and mice were killed by bleeding. […] Mice were placed in supine position, with segmental […] being toward up. 5 ml serum-free DMEM medium preheated at 37° C. was drawn out using 5 ml aseptic syringe, and middle-lower abdominal skin of mice was lifted with a tweezer, then 5 ml pre-suctioned serum-free DMEM medium preheated at 37° C. was injected to abdominal cavity (note: needlepoint being toward up, avoiding intestinal canal and fat). After that, bilateral peritoneal wall was gently kneaded and pressed for about 20-30 seconds, to make the intraperitoneal fluid fully flow. When collecting the peritoneal fluid, a little cut was opened on mouse hypogastric region using a surgical scissor, and skin was […] toward two sides, to thoroughly expose the peritoneum, then it was wiped and cleaned with 75% alcoholic cotton balls for sterilization. […] (3) Cell phenotype was detected by flow cytometer, and the corresponding marker of same sample was determined using real-time fluorescent quantified PCR. […]

mouse melanoma B16 [6] = assay: Example 4: tumor inhibitory rate of chlorogenic acid against mouse melanoma B16
Text: as §2
Each group includes 15 animals.

[7] = system: M1-type and M2-type macrophages (iNOS, IL-10, Arg expression); assay: Example 3: transformation of M2-type to M1-type macrophages (IL-4) in mouse melanoma B16 model; assay type: in vivo; conditions: IL-4 + chlorogenic acid 5, 10, 20 mg/kg
Method: Each group includes 15 animals. After successful anesthesia of mice, bilateral eyeballs were removed and mice were killed by bleeding. […] Mice were placed in supine position, with segmental […] being toward up. 5 ml serum-free DMEM medium preheated at 37° C. was drawn out using 5 ml aseptic syringe, and middle-lower abdominal skin of mice was lifted with a tweezer, then 5 ml medium was injected to abdominal cavity (note: needlepoint being toward up, avoiding intestinal canal and fat). After that, bilateral peritoneal wall was gently kneaded and pressed for about 20-30 seconds, to make the intraperitoneal fluid fully flow. When collecting the peritoneal fluid, a little cut was opened on mouse hypogastric region using a surgical scissor, and skin was […] toward two sides, to thoroughly expose the peritoneum, then it was wiped and cleaned with 75% alcoholic cotton balls for sterilization. […] (3) Cell phenotype was detected by flow cytometer, and the corresponding marker of same sample was determined using real-time fluorescent quantified PCR. […]

[8] = dose-dependent, strongest at 20 mg/kg
[9] = cyclophosphamide 60 mg/kg × 1, i.p.

Compound: O=c1[nH]cc(F)c(=O)[nH]1 [5-flurouracil, 5-fluorouracil]
- Tumor inhibitory rate (%) (mouse melanoma B16 [1]): 86.80%
- Tumor weight (g) x ± SD (mouse melanoma B16 [1]): 0.30 ± 0.18 g
- Body weight (g) x ± SD Initial (mouse melanoma B16 [1]; BALB/c mice, before dosing): 19.17 ± 0.72 g

Compound: COc1cccc2c1C(=O)c1c(O)c3c(c(O)c1C2=O)C[C@@](O)(C(=O)CO)C[C@@H]3O[C@H]1C[C@H](N)[C@H](O)[C@H](C)O1 [Adriamycin, adriamycin]
- Body weight change rate (%) (mouse melanoma B16 [2]; adriamycin 3 mg/kg × 6, i.p.): 22.39%
- Tumor inhibitory rate (%) (mouse melanoma B16 [2]; adriamycin 3 mg/kg × 6, i.p.): 58.89%
- Tumor weight (g) x ± SD (mouse melanoma B16 [2]; adriamycin 3 mg/kg × 6, i.p.): 1.90 ± 0.56 g

Compound: O=C(/C=C/c1ccc(O)c(O)c1)O[C@@H]1C[C@](O)(C(=O)O)C[C@@H](O)[C@H]1O [Chlorogenic acid, 3-O-caffeoylquinic acid]
- expression of M1-type macrophage marker TNF-α (FIG. 4) [3]: promote the expression
- expression of M1-type macrophage marker IL-12 (FIG. 2) [3, 8]: obviously promote the expression
- expression of M1-type macrophage marker iNOS (FIG. 1) [3, 8]: obviously promote the expression
- expression of M2-type macrophage marker Arg (FIG. 3) [3, 8]: obviously inhibit the expression
- effect of combination on anti-tumor effects of cyclophosphamide (mouse melanoma B16 [4]; 20 mg/kg chlorogenic acid combined with cyclophosphamide 60 mg/kg): obviously improve anti-tumor effects of cyclophosphamide
- effect on the anti-tumor effect of adriamycin (mouse melanoma B16 [2]; 20 mg/kg chlorogenic acid + 3 mg/kg adriamycin): significantly potentialize
- effect on the anti-tumor effect of cisplatin (mouse melanoma B16 [2]; 20 mg/kg chlorogenic acid + 3 mg/kg cisplatin): significantly potentialize
- state of M2-type macrophage marker Arg (FIG. 6) [5]: relatively lower state
- expression state of M1-type macrophage markers (iNOS, FIG. 5) ([5]; highest at 20 mg/kg): maintain the high expression state
- Tumor inhibitory rate (%) (mouse melanoma B16 [6]; 5 mg/kg × 13, i.p. once a day): 17.23%
- Tumor weight (g) x ± SD (mouse melanoma B16 [6]; 5 mg/kg × 13, i.p. once a day): 2.70 ± 0.76 g
- Tumor inhibitory rate (%) (mouse melanoma B16 [6]; 10 mg/kg × 13, i.p. once a day): 43.87%
- Tumor weight (g) x ± SD (mouse melanoma B16 [6]; 10 mg/kg × 13, i.p. once a day): 1.83 ± 0.86 g
- Tumor inhibitory rate compared with cyclophosphamide (mouse melanoma B16 [6]; 20 mg/kg chlorogenic acid vs 60 mg/kg cyclophosphamide): close to that of cyclophosphamide
- Tumor inhibitory rate (%) (mouse melanoma B16 [6]; 20 mg/kg × 13, i.p. once a day): 48.66%
- Tumor weight (g) x ± SD (mouse melanoma B16 [6]; 20 mg/kg × 13, i.p. once a day): 1.68 ± 0.69 g
- effect on growth of mouse melanoma B16 (mouse melanoma B16 [6]; intraperitoneal injection, 5-20 mg/kg × 13, certain dose-effect relationship): obviously inhibitory effect
- growth of M1-type macrophage cells (FIG. 7) [7]: positive correlation with the dose
- growth of M2-type macrophage cells (FIG. 8) [7]: negative correlation with the dose

Compound: N.N.[Cl][Pt][Cl] [Cisplatin, cisplatin]
- Tumor inhibitory rate (%) (mouse melanoma B16 [2]; cisplatin 3 mg/kg × 6, i.p.): 65.97%
- Tumor weight (g) x ± SD (mouse melanoma B16 [2]; cisplatin 3 mg/kg × 6, i.p.): 1.58 ± 0.69 g

Compound: O=P1(N(CCCl)CCCl)NCCCO1 (stereo not drawn) [cyclophosphamide, reference compound]
- Tumor inhibitory rate (%) (mouse melanoma B16 [4]; [9]): 61.40%
- Tumor weight (g) x ± SD (mouse melanoma B16 [4]; [9]): 1.46 ± 0.54 g
- Body weight (g) x ± SD End (mouse melanoma B16 [4]; cyclophosphamide 60 mg/kg × 1, i.p., end of study): 22.58 ± 1.15 g
- Tumor inhibitory rate (%) (mouse melanoma B16 [6]; [9]): 57.79%
- Tumor weight (g) x ± SD (mouse melanoma B16 [6]; [9]): 1.38 ± 0.62 g
- Body weight (g) x ± SD End (mouse melanoma B16 [6]; cyclophosphamide 60 mg/kg × 1, i.p., C57BL/6 mice, end of study): 23.01 ± 1.04 g
